Assays:
[1] = target: Receptor-type tyrosine-protein kinase FLT3 (Homo sapiens, UniProt P36888); test: Inhibition of recombinant human FLT3 (564 to end residues) using EAIYAAPFAKKK as substrate incubated for 40 mins in presence of [gamma-33ATP] by scintillation counting based radiometry assay
[2] = target: Mitogen-activated protein kinase kinase kinase kinase 2 (Homo sapiens, UniProt Q12851); test: Inhibition of recombinant human GCK (1 to 473 residues) using myelin basic protein as substrate incubated for 40 mins in presence of [gamma-33ATP] by scintillation counting based radiometry assay
Sequence of Mitogen-activated protein kinase kinase kinase kinase 2 (Q12851 whole entry, the tested form may be a part): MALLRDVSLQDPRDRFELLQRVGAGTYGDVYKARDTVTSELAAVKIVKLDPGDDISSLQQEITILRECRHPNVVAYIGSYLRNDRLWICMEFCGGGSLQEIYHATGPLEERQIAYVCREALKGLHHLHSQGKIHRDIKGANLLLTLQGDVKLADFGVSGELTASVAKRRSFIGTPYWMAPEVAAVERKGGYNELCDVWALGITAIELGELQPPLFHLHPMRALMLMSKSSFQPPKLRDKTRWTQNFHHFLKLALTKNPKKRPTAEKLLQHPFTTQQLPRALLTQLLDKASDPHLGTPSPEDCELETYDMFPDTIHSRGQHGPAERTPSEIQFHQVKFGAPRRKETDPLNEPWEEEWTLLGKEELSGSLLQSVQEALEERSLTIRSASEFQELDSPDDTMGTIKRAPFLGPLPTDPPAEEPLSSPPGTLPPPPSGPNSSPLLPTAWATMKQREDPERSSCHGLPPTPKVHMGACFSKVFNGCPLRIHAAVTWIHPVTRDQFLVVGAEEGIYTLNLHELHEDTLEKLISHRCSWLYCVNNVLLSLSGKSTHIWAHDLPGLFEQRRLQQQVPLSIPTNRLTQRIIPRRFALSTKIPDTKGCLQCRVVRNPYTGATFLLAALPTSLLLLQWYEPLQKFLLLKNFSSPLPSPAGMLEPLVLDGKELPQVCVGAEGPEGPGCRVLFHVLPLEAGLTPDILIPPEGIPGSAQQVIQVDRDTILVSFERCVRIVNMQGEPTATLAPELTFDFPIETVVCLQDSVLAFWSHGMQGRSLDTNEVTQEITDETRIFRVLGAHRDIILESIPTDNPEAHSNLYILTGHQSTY

[3] = target: Tyrosine-protein kinase BTK (Homo sapiens, UniProt Q06187); test: Inhibition of full length recombinant human BTK using KVEKIGEGTYGVVYK as substrate incubated for 40 mins in presence of [gamma-33P]-ATP by scintillation counting based radiometry assay
Sequence of Tyrosine-protein kinase BTK (Q06187 whole entry): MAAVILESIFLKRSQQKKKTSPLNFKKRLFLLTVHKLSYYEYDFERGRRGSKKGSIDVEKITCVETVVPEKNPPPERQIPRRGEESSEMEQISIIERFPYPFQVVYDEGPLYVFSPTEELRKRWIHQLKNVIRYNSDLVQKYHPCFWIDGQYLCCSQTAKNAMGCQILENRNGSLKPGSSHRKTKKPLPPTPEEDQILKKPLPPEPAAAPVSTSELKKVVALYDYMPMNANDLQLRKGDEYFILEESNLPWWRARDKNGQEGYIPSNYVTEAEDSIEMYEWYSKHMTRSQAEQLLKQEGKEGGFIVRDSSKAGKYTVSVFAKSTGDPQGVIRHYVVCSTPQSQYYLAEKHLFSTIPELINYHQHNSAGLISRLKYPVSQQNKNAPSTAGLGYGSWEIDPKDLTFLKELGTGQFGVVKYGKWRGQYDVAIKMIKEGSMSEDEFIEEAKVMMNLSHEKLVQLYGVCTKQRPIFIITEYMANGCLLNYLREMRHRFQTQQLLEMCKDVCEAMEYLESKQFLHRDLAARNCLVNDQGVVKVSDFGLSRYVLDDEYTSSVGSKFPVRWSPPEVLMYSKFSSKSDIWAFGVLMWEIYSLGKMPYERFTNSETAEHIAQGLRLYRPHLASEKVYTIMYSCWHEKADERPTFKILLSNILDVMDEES

HT-29 = test: Antiproliferative activity against human HT-29 cells incubated for 72 hrs by SRB or CCK8 assay; type: functional, cell-based; settings: HT-29, 72 h
MM1.S = test: Antiproliferative activity against human MM1.S cells incubated for 72 hrs by SRB or CCK8 assay; type: functional, cell-based

Sequence of Receptor-type tyrosine-protein kinase FLT3 (P36888 whole entry, the tested form may be a part): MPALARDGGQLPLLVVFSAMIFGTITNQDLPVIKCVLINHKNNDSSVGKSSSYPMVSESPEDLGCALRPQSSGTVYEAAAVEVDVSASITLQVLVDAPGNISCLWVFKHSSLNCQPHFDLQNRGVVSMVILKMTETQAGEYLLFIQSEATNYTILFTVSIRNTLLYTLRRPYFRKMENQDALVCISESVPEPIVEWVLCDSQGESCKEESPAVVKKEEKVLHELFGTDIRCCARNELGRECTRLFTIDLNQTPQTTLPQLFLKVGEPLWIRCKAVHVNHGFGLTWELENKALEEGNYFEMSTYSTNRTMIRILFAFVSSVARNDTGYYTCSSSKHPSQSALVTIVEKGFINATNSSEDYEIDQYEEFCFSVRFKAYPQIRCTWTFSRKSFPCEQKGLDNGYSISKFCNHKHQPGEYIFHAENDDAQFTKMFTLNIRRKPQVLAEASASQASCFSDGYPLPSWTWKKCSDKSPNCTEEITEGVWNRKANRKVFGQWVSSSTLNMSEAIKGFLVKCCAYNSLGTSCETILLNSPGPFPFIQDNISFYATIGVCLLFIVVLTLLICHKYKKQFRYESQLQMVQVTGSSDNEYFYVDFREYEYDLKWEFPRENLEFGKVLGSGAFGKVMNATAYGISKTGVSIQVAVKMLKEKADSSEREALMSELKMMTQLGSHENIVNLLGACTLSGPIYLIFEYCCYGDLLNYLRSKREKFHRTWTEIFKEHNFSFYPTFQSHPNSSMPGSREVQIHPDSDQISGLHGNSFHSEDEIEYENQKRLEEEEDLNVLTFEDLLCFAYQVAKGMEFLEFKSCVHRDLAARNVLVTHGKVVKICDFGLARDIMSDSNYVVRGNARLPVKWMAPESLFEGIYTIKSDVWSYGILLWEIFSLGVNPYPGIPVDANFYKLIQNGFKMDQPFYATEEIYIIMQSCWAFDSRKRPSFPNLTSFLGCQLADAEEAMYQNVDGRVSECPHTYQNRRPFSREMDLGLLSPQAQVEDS

IC50 [1]: > 1000 nM
IC50 [2]: > 1000 nM
IC50 [3]: > 1000 nM
IC50 (HT-29): > 10000 nM
IC50 (MM1.S): > 10000 nM
Structure (SMILES): CC(C)n1cc(C(=O)Nc2ccc(Oc3ccnc(NC(=O)C4CC4)c3)c(F)c2)c(=O)n(-c2ccc(F)cc2)c1=O
